Assay results as given in patent US20230151057A1, “LACTIC ACID BACTERIA GROWTH PROMOTER” (Asahi Group Holdings, Ltd., priority 2020, published 2023).
Ends that are not written are not given here.

What was measured:
Format in all cases: cell-based
[1] = system: Lactobacillus acidophilus (FERM BP-4981); experiment: Growth-promoting effect on Lactobacillus acidophilus in modified MRS medium (particle count); settings: Example 2, peptide 0.25 mg/mL, 37° C., 18 hours; for Rate of increase: control = 100%
Text: Nitrogen sources in MRS medium were reduced to find a medium composition that achieves a total bacterial count of about 1.0×10^8 cell/mL to 1.0×10^9 cell/mL after culturing of each of the six bacterial strains Lactobacillus gasseri (FERNM BP-11331), Lactobacillus acidophilus (FERM BP-4981), Lactobacillus amylovorus (FERM BP-11255), Lactobacillus curvatus (NITE P-02033), Lactobacillus plantarum, and Lactobacillus brevis. This composition, named “modified MRS medium”, was used for the evaluation. Here, for the composition of the MRS medium, a composition described in a medium catalog provided by BD (Becton, Dickinson and Company) was used as a reference. The compositions of the MRS medium and the modified MRS medium are as follows. By chemical synthesis, 28 kinds of candidate peptides having the sequences shown below were provided. Each candidate peptide was added to the modified MRS medium at 0.25 mg/mL to provide a medium to be evaluated. The lactic acid bacterium Lactobacillus gasseri was inoculated at 1.0×10^7 cells/mL to the provided medium to be evaluated, and culture was carried out at a temperature of 37° C. for a culture period of 18 hours. The resulting culture was collected, and subjected to measurement of the particle concentration (particles/mL) as a characteristic value that can be used as an index of the bacterial cell growth, using a particle count analyzer (CDA-1000, Sysmex). The rate of increase (%) was calculated relative to a control value obtained using a medium to which no peptide was added, which was taken as 100%. For eight kinds of candidate peptides having the sequences shown below, the growth-promoting effect on a lactic acid bacterium was evaluated in the same manner as in Example 1 except that Lactobacillus acidophilus was used instead of Lactobacillus gasseri.

[2] = system: Lactobacillus amylovorus (FERM BP-11255); experiment: Growth-promoting effect on Lactobacillus amylovorus in modified MRS medium (particle count); settings: Example 3, peptide 0.25 mg/mL, 37° C., 18 hours; for Rate of increase: control = 100%
Text: Nitrogen sources in MRS medium were reduced to find a medium composition that achieves a total bacterial count of about 1.0×10^8 cell/mL to 1.0×10^9 cell/mL after culturing of each of the six bacterial strains Lactobacillus gasseri (FERNM BP-11331), Lactobacillus acidophilus (FERM BP-4981), Lactobacillus amylovorus (FERM BP-11255), Lactobacillus curvatus (NITE P-02033), Lactobacillus plantarum, and Lactobacillus brevis. This composition, named “modified MRS medium”, was used for the evaluation. Here, for the composition of the MRS medium, a composition described in a medium catalog provided by BD (Becton, Dickinson and Company) was used as a reference. The compositions of the MRS medium and the modified MRS medium are as follows. By chemical synthesis, 28 kinds of candidate peptides having the sequences shown below were provided. Each candidate peptide was added to the modified MRS medium at 0.25 mg/mL to provide a medium to be evaluated. The lactic acid bacterium Lactobacillus gasseri was inoculated at 1.0×10^7 cells/mL to the provided medium to be evaluated, and culture was carried out at a temperature of 37° C. for a culture period of 18 hours. The resulting culture was collected, and subjected to measurement of the particle concentration (particles/mL) as a characteristic value that can be used as an index of the bacterial cell growth, using a particle count analyzer (CDA-1000, Sysmex). The rate of increase (%) was calculated relative to a control value obtained using a medium to which no peptide was added, which was taken as 100%. For eight kinds of candidate peptides having the sequences shown below, the growth-promoting effect on a lactic acid bacterium was evaluated in the same manner as in Example 1 except that Lactobacillus amylovorus was used instead of Lactobacillus gasseri.

[3] = system: Lactobacillus brevis; experiment: Growth-promoting effect on Lactobacillus brevis in modified MRS medium (particle count); settings: Example 6, peptide 0.25 mg/mL, 37° C., 18 hours; for Rate of increase: control = 100%
Text: Nitrogen sources in MRS medium were reduced to find a medium composition that achieves a total bacterial count of about 1.0×10^8 cell/mL to 1.0×10^9 cell/mL after culturing of each of the six bacterial strains Lactobacillus gasseri (FERNM BP-11331), Lactobacillus acidophilus (FERM BP-4981), Lactobacillus amylovorus (FERM BP-11255), Lactobacillus curvatus (NITE P-02033), Lactobacillus plantarum, and Lactobacillus brevis. This composition, named “modified MRS medium”, was used for the evaluation. Here, for the composition of the MRS medium, a composition described in a medium catalog provided by BD (Becton, Dickinson and Company) was used as a reference. The compositions of the MRS medium and the modified MRS medium are as follows. By chemical synthesis, 28 kinds of candidate peptides having the sequences shown below were provided. Each candidate peptide was added to the modified MRS medium at 0.25 mg/mL to provide a medium to be evaluated. The lactic acid bacterium Lactobacillus gasseri was inoculated at 1.0×10^7 cells/mL to the provided medium to be evaluated, and culture was carried out at a temperature of 37° C. for a culture period of 18 hours. The resulting culture was collected, and subjected to measurement of the particle concentration (particles/mL) as a characteristic value that can be used as an index of the bacterial cell growth, using a particle count analyzer (CDA-1000, Sysmex). The rate of increase (%) was calculated relative to a control value obtained using a medium to which no peptide was added, which was taken as 100%. For eight kinds of candidate peptides having the sequences shown below, the growth-promoting effect on a lactic acid bacterium was evaluated in the same manner as in Example 1 except that Lactobacillus brevis was used instead of Lactobacillus gasseri.

AGPQTF
Particle concentration [1]: 1.02e+08 mL⁻¹ | Rate of increase [1]: 105% | Particle concentration [2]: 1.93e+08 mL⁻¹ | Rate of increase [2]: 118% | Particle concentration [3]: 1.16e+09 mL⁻¹ | Rate of increase [3]: 106%

APKPDYPIA (listed as Saccharomyces cerevisiae) [Ala-Pro-Lys-Pro-Asp-Tyr-Pro-Ile-Ala]
Particle concentration [1]: 9.73e+07 mL⁻¹ | Rate of increase [1]: 100% | Particle concentration [2]: 1.83e+08 mL⁻¹ | Rate of increase [2]: 112% | Particle concentration [3]: 1.12e+09 mL⁻¹ | Rate of increase [3]: 103%

Leu-Phe [LF]
Particle concentration [1]: 8.75e+07 mL⁻¹ | Rate of increase [1]: 121% | Particle concentration [2]: 2.08e+08 mL⁻¹ | Rate of increase [2]: 109% | Particle concentration [3]: 1.24e+09 mL⁻¹ | Rate of increase [3]: 114%

Leu-Pro-Trp-Gly (LPWG; listed as Saccharomyces cerevisiae)
Particle concentration [1]: 1.03e+08 mL⁻¹ | Rate of increase [1]: 113% | Particle concentration [2]: 2.13e+08 mL⁻¹ | Rate of increase [2]: 111% | Particle concentration [3]: 1.18e+09 mL⁻¹ | Rate of increase [3]: 108%

Pro-Ser-Val-Phe (PSVF; listed as Saccharomyces cerevisiae)
Particle concentration [1]: 1e+08 mL⁻¹ | Rate of increase [1]: 103% | Particle concentration [2]: 1.92e+08 mL⁻¹ | Rate of increase [2]: 118% | Particle concentration [3]: 1.16e+09 mL⁻¹ | Rate of increase [3]: 106%

Pro-Val-Phe [PVF]
Particle concentration [1]: 1.01e+08 mL⁻¹ | Rate of increase [1]: 111% | Particle concentration [2]: 2.07e+08 mL⁻¹ | Rate of increase [2]: 108% | Particle concentration [3]: 1.17e+09 mL⁻¹ | Rate of increase [3]: 107%

Pro-Val-Tyr [PVY]
Particle concentration [1]: 1.1e+08 mL⁻¹ | Rate of increase [1]: 113% | Particle concentration [2]: 1.98e+08 mL⁻¹ | Rate of increase [2]: 121% | Particle concentration [3]: 1.17e+09 mL⁻¹ | Rate of increase [3]: 107%

Val-Pro-Ala-Phe (VPAF; listed as Saccharomyces cerevisiae)
Particle concentration [1]: 1.04e+08 mL⁻¹ | Rate of increase [1]: 113% | Particle concentration [2]: 2.07e+08 mL⁻¹ | Rate of increase [2]: 108% | Particle concentration [3]: 1.16e+09 mL⁻¹ | Rate of increase [3]: 106%
